In patent publication US12187686B2, “BRD4-JAK2 inhibitors” (H. LEE MOFFITT CANCER CENTER AND RESEARCH INSTITUTE, INC., priority 2018, dated 2025):
Like-named read-outs stand apart in the source and are kept apart here.

Experiments:
UKE1 cells = assay: Growth inhibition of UKE1 cells; format: cell-based
BRD4 [1] = target: T1, BRD4 (Homo sapiens, UniProt O60885); assay: Differential Scanning Fluorimetry (DSF), increased stability of BRD4 upon ligand binding; conditions: for ΔTm at 4 µM: 100 μM protein, 4 μM compound and 2% DMSO; for BRD4 DSF (ΔTm): Table 3
Protocol: DSF=Differential Scanning Fluorimetry; provides a measure of the increased stability of BRD4 upon ligand binding The DSF experiment was run at 100 μM protein, 4 μM compound and 2% DMSO.

MM1.S cells = assay: Antiproliferative activity in MM1.S cells (sensitive for BRD4 inhibition); format: cell-based; conditions: Homo sapiens; for EC50: MM1.S cells (sensitive for BRD4 inhibition); for GI50 / IC50: MM1.S; for GI50: Table 3, read-out: GI50 (MM1S)
Protocol: Cellular activity of promising compounds is assessed using MM.1S and MV4-11 AML cells using c-Myc levels as biomarker (6-12 hr treatment) and antiproliferative activity (48-72 hr treatment) as described (Ciceri et al., Dual kinase-bromodomain inhibitors for rationally designed polypharmacology. Nat Chem Biol 2014).

c-Myc = conditions: MM.1S cells; background, literature; cited from earlier work
JAK2 = JAK2 (Homo sapiens, UniProt O60674); assay: JAK2 inhibition (IC50); format: biochemical
Chain of JAK2 (O60674 whole entry): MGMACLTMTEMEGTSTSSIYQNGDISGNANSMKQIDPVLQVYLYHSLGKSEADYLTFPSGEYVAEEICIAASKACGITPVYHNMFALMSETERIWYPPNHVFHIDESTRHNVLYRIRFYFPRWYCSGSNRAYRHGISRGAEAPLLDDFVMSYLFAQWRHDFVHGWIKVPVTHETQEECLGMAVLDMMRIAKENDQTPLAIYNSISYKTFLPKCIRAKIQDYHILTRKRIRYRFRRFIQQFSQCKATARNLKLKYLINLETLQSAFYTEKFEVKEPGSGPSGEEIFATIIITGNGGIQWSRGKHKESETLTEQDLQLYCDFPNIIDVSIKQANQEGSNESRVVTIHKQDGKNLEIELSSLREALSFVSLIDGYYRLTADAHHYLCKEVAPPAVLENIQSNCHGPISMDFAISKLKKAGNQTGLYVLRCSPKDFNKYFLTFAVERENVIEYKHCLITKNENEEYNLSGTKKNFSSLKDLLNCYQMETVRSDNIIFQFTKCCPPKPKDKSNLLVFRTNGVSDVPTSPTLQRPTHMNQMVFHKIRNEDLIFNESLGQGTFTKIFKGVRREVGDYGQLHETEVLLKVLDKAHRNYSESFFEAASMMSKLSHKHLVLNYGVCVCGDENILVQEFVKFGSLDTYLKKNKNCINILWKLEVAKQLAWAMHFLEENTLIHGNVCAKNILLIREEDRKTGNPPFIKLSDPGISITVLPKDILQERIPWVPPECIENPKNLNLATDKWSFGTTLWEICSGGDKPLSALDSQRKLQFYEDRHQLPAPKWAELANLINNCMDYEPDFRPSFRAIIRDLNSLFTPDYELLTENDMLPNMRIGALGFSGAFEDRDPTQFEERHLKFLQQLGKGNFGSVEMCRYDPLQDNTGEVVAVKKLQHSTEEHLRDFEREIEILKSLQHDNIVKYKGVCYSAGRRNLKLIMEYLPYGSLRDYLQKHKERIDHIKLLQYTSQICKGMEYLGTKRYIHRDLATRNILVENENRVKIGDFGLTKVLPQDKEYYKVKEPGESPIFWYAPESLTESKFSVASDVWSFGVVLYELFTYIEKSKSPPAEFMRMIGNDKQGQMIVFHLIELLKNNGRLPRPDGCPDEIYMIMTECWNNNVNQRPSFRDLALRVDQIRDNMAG

BRD4 [2] = target: T1, BRD4; assay: BRD4 inhibition (IC50); format: binding; design: BRD4-1
Mouse microsome = format: in vitro ADME; conditions: Table 1
MV4-11 AML cells = conditions: background, literature; read-out: IC50, proliferation of MV4-11 AML cells; cited from earlier work
[3] = Table 2, read-out: GI50 (UKE1 cells)
[4] = Table 1, read-out: GI50 (UKE1 cells)
[5] = Table 1, estimated, read-out: Estimated BRD4-1 IC50 (BRD4)

SMILES: Cc1cnc(Nc2ccc(N3CCN(C)CC3)c(F)c2)cc1Nc1ccc(Cl)c(NS(=O)(=O)C(C)(C)C)c1
- GI50 (UKE1 cells; [3]): 4500 nM
- ΔTm at 4 µM (BRD4 [1]; Table 2): 6.9 °C
- EC50 (MM1.S cells; Table 2): 3120 nM

SMILES: Cc1cnc(Nc2cc(F)c(N3CCN(C)CC3)c(F)c2)cc1Nc1ccc(Cl)c(NS(=O)(=O)C(C)(C)C)c1
- GI50 (UKE1 cells; [3]): 5700 nM
- ΔTm at 4 µM (BRD4 [1]; Table 2): 6.6 °C
- EC50 (MM1.S cells; Table 2): 2830 nM

SMILES: CC[C@@H]1C(=O)N(C)c2cnc(Nc3ccc(C(=O)NC4CCN(C)CC4)cc3OC)nc2N1C1CCCC1 [BI2536]
- downregulation of c-Myc (c-Myc): strong downregulation

SMILES: Cc1cnc(Nc2ccc(N3CCN(C)CC3)c(F)c2)nc1Nc1cccc(CS(=O)(=O)C(C)(C)C)c1 [SR3-159, N^4-(3-((tert-Butylsulfonyl)methyl)phenyl)-N^2-(3-fluoro-4-(4-methylpiperazin-1-yl)phenyl)-5-methylpyrimidine-2,4-diamine]
- GI50 (UKE1 cells; [4]): 440 nM
- GI50 (UKE1 cells; Table 3, read-out: GI50 (UKE1)): 440 nM
- IC50 (JAK2; Table 1, read-out: IC50 (JAK2)): 9 nM
- IC50 (JAK2; Table 3, read-out: JAK2 (IC50)): 8 nM
- ΔTm at 4 µM (BRD4 [1]; Table 1): 8.4 °C
- BRD4 DSF (ΔTm) (BRD4 [1]): 8.4 °C
- IC50 (BRD4 [2]; [5]): 5610 nM
- IC50 (BRD4 [2]; Table 3, read-out: BRD4 (IC50)): 5600 nM
- GI50 (MM1.S cells): 710 nM
- EC50 (MM1.S cells; Table 1): 710 nM

SMILES: Cc1cnc(Nc2ccc(C(=O)NC3CCN(C)CC3)c(F)c2)nc1Nc1cccc(CS(=O)(=O)C(C)(C)C)c1 [SR3-162, 4-((4-((3-((tert-Butylsulfonyl)methyl)phenyl)amino)-5-methylpyrimidin-2-yl)amino)-2-fluoro-N-(1-methylpiperidin-4-yl)benzamide]
- IC50 (JAK2; Table 3, read-out: JAK2 (IC50)): 2.2 nM
- ΔTm at 4 µM (BRD4 [1]; Table 1): 6.9 °C
- BRD4 DSF (ΔTm) (BRD4 [1]): 6.9 °C
- IC50 (MM1.S cells; Table 1): 130 nM
- GI50 (MM1.S cells): 130 nM

SMILES: Cc1cnc(Nc2ccc(C3CCN(C)CC3)c(F)c2)nc1Nc1cccc(CS(=O)(=O)C(C)(C)C)c1 [SR3-167, N^4-(3-((tert-Butylsulfonyl)methyl)phenyl)-N^2-(3-fluoro-4-(1-methylpiperidin-4-yl)phenyl)-5-methylpyrimidine-2,4-diamine]
- GI50 (UKE1 cells; [4]): 210 nM
- GI50 (UKE1 cells; Table 3, read-out: GI50 (UKE1)): 210 nM
- IC50 (JAK2; Table 1, unit given as nm, read-out: IC50 (JAK2)): 0.87 nM
- IC50 (JAK2; Table 3, read-out: JAK2 (IC50)): 1 nM
- ΔTm at 4 µM (BRD4 [1]; Table 1): 9.2 °C
- BRD4 DSF (ΔTm) (BRD4 [1]): 9.2 °C
- IC50 (BRD4 [2]; [5]): 704 nM
- IC50 (BRD4 [2]; Table 3, read-out: BRD4 (IC50)): 700 nM
- Mouse microsome (Mouse microsome): 28%
- IC50 (MM1.S cells; Table 1): 140 nM
- GI50 (MM1.S cells): 140 nM

SMILES: Cc1cnc(Nc2ccc(C3CCN(C)CC3)c(F)c2)nc1Nc1ccc(Cl)c(CS(=O)(=O)C(C)(C)C)c1 [SR3-169, N^4-(3-((tert-Butylsulfonyl)methyl)-4-chlorophenyl)-N^2-(3-fluoro-4-(1-methylpiperidin-4-yl)phenyl)-5-methylpyrimidine-2,4-diamine]
- GI50 (UKE1 cells; [4]): 400 nM
- GI50 (UKE1 cells; Table 3, read-out: GI50 (UKE1)): 400 nM
- IC50 (JAK2; Table 3, read-out: JAK2 (IC50)): 4.2 nM
- ΔTm at 4 µM (BRD4 [1]; Table 1): 9.8 °C
- BRD4 DSF (ΔTm) (BRD4 [1]): 9.8 °C
- IC50 (BRD4 [2]; Table 3, read-out: BRD4 (IC50)): 700 nM
- Mouse microsome (Mouse microsome): 22%
- IC50 (MM1.S cells; Table 1): 320 nM
- GI50 (MM1.S cells): 320 nM

SMILES: Cc1cnc(Nc2ccc(C3CCN(C)CC3)c(F)c2)nc1Nc1ccc2c(c1)C(S(=O)(=O)C(C)(C)C)CC2 (stereo not shown) [SR5-156, N^4-(3-(tert-Butylsulfonyl)-2,3-dihydro-1H-inden-5-yl)-N^2-(3-fluoro-4-(1-methylpiperidin-4-yl)phenyl)-5-methylpyrimidine-2,4-diamine]
- GI50 (UKE1 cells; Table 3, read-out: GI50 (UKE1)): 1440 nM
- BRD4 DSF (ΔTm) (BRD4 [1]): 8.7 °C
- GI50 (MM1.S cells): 850 nM

SMILES: Cc1cnc(Nc2cc(F)c(C3CCN(C)CC3)c(F)c2)nc1Nc1ccc2c(c1)C(S(=O)(=O)C(C)(C)C)CC2 (stereo not shown) [SR5-157, N^4-(3-(tert-Butylsulfonyl)-2,3-dihydro-1H-inden-5-yl)-N^2-(3,5-difluoro-4-(1-methylpiperidin-4-yl)phenyl)-5-methylpyrimidine-2,4-diamine]
- GI50 (UKE1 cells; Table 3, read-out: GI50 (UKE1)): 1500 nM
- GI50 (MM1.S cells): 700 nM

SMILES: Cc1cnc(Nc2cc(F)c(C3CCN(C)CC3)cn2)nc1Nc1ccc2c(c1)C(S(=O)(=O)C(C)(C)C)CC2 (stereo not shown) [SR5-158, N^4-(3-(tert-Butylsulfonyl)-2,3-dihydro-1H-inden-5-yl)-N^2-(4-fluoro-5-(1-methylpiperidin-4-yl)pyridin-2-yl)-5-methylpyrimidine-2,4-diamine]
- GI50 (UKE1 cells; Table 3, read-out: GI50 (UKE1)): 3640 nM
- BRD4 DSF (ΔTm) (BRD4 [1]): 7.0 °C
- GI50 (MM1.S cells): 2300 nM

SMILES: Cc1cnc(Nc2ccc(C3CCN(C)CC3)cc2)cc1Nc1cccc(CS(=O)(=O)C(C)(C)C)c1 [SY3-032, N^4-(3-((tert-Butylsulfonyl)methyl)phenyl)-5-methyl-N^2-(4-(1-methylpiperidin-4-yl)phenyl)pyridine-2,4-diamine]
- BRD4 DSF (ΔTm) (BRD4 [1]): 2.5 °C

SMILES: Cc1cnc(Nc2ccc(C3CCN(C)CC3)c(F)c2)cc1Nc1cccc(CS(=O)(=O)C(C)(C)C)c1 [SY3-036, N^4-(3-((tert-Butylsulfonyl)methyl)phenyl)-N^2-(3-fluoro-4-(1-methylpiperidin-4-yl)phenyl)-5-methylpyridine-2,4-diamine]
- BRD4 DSF (ΔTm) (BRD4 [1]): 2.9 °C

SMILES: Cc1cnc(Nc2ccc(N3CCN(C)CC3)cc2)nc1Nc1cccc(S(=O)(=O)NC(C)(C)C)c1 [TG101209]
- downregulation of c-Myc (c-Myc): strong downregulation

SMILES: Cc1cnc(Nc2ccc(OCCN3CCCC3)cc2)nc1Nc1cccc(S(=O)(=O)NC(C)(C)C)c1 [TG101348]
- IC50 (MV4-11 AML cells): 79 nM
- downregulation of c-Myc (c-Myc): strong downregulation
